“Also recorded” adds a separate entry of the source.
Key:
cIAP1-BIR3 = cIAP1-BIR3 (Homo sapiens, UniProt Q13490); test: DELFIA displacement assay, cIAP1-BIR3; format: binding
cIAP2-BIR3 = cIAP2-BIR3 (Homo sapiens, UniProt Q13489); test: DELFIA displacement assay, cIAP2-BIR3; format: binding
BIR3 domain of XIAP [1] = target: T1, BIR3 domain of XIAP (Homo sapiens, UniProt P98170); test: DELFIA displacement assay, XIAP-BIR3; format: binding
BIR3 domain of XIAP [2] = target: T1, BIR3 domain of XIAP; test: Kinetic analysis using the DELFIA assay; format: binding
[3] = target: HA-BIR3 of XIAP-expressing HEK293T cells (Homo sapiens, UniProt P98170); test: Immunoblot of HA-BIR3 XIAP-expressing HEK293T cells; format: cell-based; conditions: 10 μM compound, 6 h, anti-HA antibody
Chain of HA-BIR3 of XIAP-expressing HEK293T cells (P98170 253-347 limits assumed): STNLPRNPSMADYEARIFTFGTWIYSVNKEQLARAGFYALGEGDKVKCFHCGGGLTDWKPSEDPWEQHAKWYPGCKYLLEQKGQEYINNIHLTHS

[4] = target: wt-BIR3 (Lys311) domain of XIAP (Homo sapiens, UniProt P98170); test: Denaturation thermal shift, wt BIR3 of XIAP; conditions: for Thermal shift data ATm XIAP-BIR3: Table 2
Chain of wt-BIR3 (Lys311) domain of XIAP (P98170 253-347): as the sequence (P98170 253-347 limits assumed) above

T1 sequence (P98170 253-347): as the sequence (P98170 253-347 limits assumed) above
Chain of cIAP1-BIR3 (Q13490 258-363): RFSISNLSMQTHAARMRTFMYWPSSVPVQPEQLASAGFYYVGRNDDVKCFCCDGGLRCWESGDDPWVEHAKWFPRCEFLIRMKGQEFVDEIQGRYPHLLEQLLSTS
Chain of cIAP2-BIR3 (Q13489 244-349): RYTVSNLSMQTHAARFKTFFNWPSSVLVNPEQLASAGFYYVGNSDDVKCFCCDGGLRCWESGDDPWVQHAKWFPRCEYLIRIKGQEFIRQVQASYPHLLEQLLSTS

CN[C@@H](C)C(=O)N[C@@H](CNCc1ccc(S(=O)(=O)F)cc1)C(=O)N1CCC[C@H]1C(=O)N[C@@H]1CCc2c(F)cccc21 [compound 12, 4-((((S)-3-((S)-2-(((R)-4-fluoro-2,3-dihydro-1Hinden-1-yl)carbamoyl)pyrrolidin-1-yl)-2-((S)-2(methylamino)propanamido)-3oxopropyl)amino)methyl)benzene-1-sulfonyl fluoride]
IC50 (cIAP1-BIR3): 0.022 ± 0.004 µM
IC50 (cIAP2-BIR3): 0.0585 ± 0.0001 µM

CN[C@@H](C)C(=O)N[C@@H](CNC(=O)c1ccc(S(=O)(=O)F)c(OC)c1)C(=O)N1CCC[C@H]1C(=O)N[C@@H]1CCc2c(F)cccc21 [compound 13, 4-(((S)-3-((S)-2-(((R)-4-fluoro-2,3-dihydro-1Hinden-1-yl)carbamoyl)pyrrolidin-1-yl)-2-((S)-2(methylamino)propanamido)-3-oxopropyl)carbamoyl)-2methoxybenzene-1-sulfonyl fluoride]
IC50 (BIR3 domain of XIAP [1]): 0.0156 ± 0.0008 µM
Selectivity XIAP vs cIAP1/2, in words (BIR3 domain of XIAP [1]; from DELFIA IC50 values of Table 2): more potent towards XIAP; also recorded: significantly more selective for XIAP compared to cIAP1/2
IC50 (cIAP1-BIR3): 0.141 ± 0.015 µM
IC50 (cIAP2-BIR3): 0.492 ± 0.026 µM
Ki (BIR3 domain of XIAP [2]): 0.085 ± 0.003 µM
Covalent adduct formation in cell (band shift) [3]: band shift
Stabilization of HA-BIR3 in cell (western blot band intensity) [3]: stabilized HA-BIR3; also recorded: most intense band
Thermal shift data ATm XIAP-BIR3 ([4]; pre-incubation 30min (top value) at room temperature): 27.0 ± 0.2 °C
Thermal shift data ATm XIAP-BIR3 ([4]; pre-incubation 2h (bottom value) at room temperature): 27.2 ± 0.1 °C
ΔTm, BIR3 domain of XIAP, as stated in text or legend ([4]; approximate values or bounds in running text, incubation 30 min or 2 h): > 20 °C

Reference: publication PMC7722097 (ChemMedChem, 2020)
